Experimental data: patent US20100298141A1, “SUBSTITUTED PYRIDINE N-OXIDE HERBICIDES” (E. I. DU PONT DE NEMOURS AND COMPANY, priority 2007, published 2010)

Experiments:
[1] = test system: water seeded rice seedlings; experiment: Test E flooded paddy test; format: in vivo, Oryza sativa cv. ‘Japonica -M202’; details: Flood, after 21 days, scale 0 to 100
Text: (§1) Three plastic pots (ca. 16-cm diameter) per rate were partially filled with sterilized Tama silt loam soil comprising a 35:50:15 ratio of sand, silt and clay and 2.6% organic matter. Separate plantings for each of the three pots were as follows. Seeds from the U.S. of ducksalad (Heteranthera limosa), smallflower umbrella sedge (Cyperus difformis) and purple […] coccinea), were planted into one 16-cm pot for each rate. […] Seeds from the U.S. of barnyardgrass (Echinochloa crus-galli), late watergrass (Echinochloa oryzicola), early watergrass (Echinochloa oryzoides) and junglerice (Echinochloa colona) were planted into one 16-cm pot for each rate. Plantings were sequential so that crop and weed species were at the 2.0 to 2.5-leaf stage at time of treatment. Potted plants were grown in a greenhouse with day/night temperature settings of 30/27° C., and supplemental balanced lighting was provided to maintain a 16-hour photoperiod. Test pots were maintained in the greenhouse until test completion. At time of treatment, test pots were flooded to 3 cm above the soil surface, treated by application of test compounds directly to the paddy water, and then maintained at that water depth for the duration of the test. Effects of treatments on rice and weeds were visually evaluated by comparison to untreated controls after 21 days. […] A dash (-) response means no test result.

early watergrass = experiment: Test E flooded paddy test; format: in vivo, Echinochloa oryzoides; details: Flood, after 21 days, scale 0 to 100
Text: as §1

[2] = test system: smallflower umbrella sedge; experiment: Test E flooded paddy test; format: in vivo, Cyperus difformis; details: Flood, after 21 days, scale 0 to 100
Text: as §1

bearded sprangletop = experiment: Test E flooded paddy test; format: in vivo, Leptochloa fascicularis; details: Flood, after 21 days, scale 0 to 100
Text: as §1

barnyardgrass = experiment: Test G preemergence test; format: in vivo, Echinochloa crus-galli; details: scale 0 to 100
fall panicum = experiment: Test G preemergence test; format: in vivo, Panicum dichotomiflorum; details: scale 0 to 100
giant foxtail = experiment: Test G preemergence test; format: in vivo, Setaria faberii; details: scale 0 to 100
windgrass = experiment: Test D preemergence test; format: in vivo, Apera spica-venti; details: scale 0 to 100
Text: (§2) Seeds of plant species selected from annual bluegrass (Poa annua), blackgrass (Alopecurus myosuroides), downy bromegrass (Bromus tectorum), field violet (Viola arvensis), green foxtail (Setaria viridis), Italian ryegrass (Lolium multiflorum), littleseed canarygrass (Phalaris minor), spring wheat (Triticum aestivum), wild oat (Avena fatua), […]), winter barley (Hordeum vulgare), and winter wheat (Triticum aestivum) were planted and treated preemergence with test chemicals formulated in a non-phytotoxic solvent mixture which included a surfactant. […] A dash (-) response means no test result.

winter barley = experiment: Test D preemergence test; format: in vivo, Hordeum vulgare
Text: as §2

millet foxtail = experiment: Test G preemergence test; format: in vivo, Setaria italica; details: scale 0 to 100
sugarcane = experiment: Test F pre-/postemergence test; format: in vivo, Saccharum officinarum; details: for Sugarcane plant response rating: postemergence
Text: Seeds of plant species selected from bermudagrass (Cynodon dactylon), Surinam grass (Brachiaria decumbens), large crabgrass (Digitaria sanguinalis), green foxtail (Setaria viridis), goosegrass (Eleusine indica), johnsongrass (Sorghum halepense), kochia (Kochia scoparia), pitted morningglory (Ipomoea lacunosa), purple nutsedge (Cyperus rotundus), common ragweed (Ambrosia elation), mustard (Brassica nigra), guineagrass (Panicum maximum), […] (Paspalum dilatatum), barnyardgrass (Echinochloa crus-galli), southern sandbur (Cenchrus echinatus), common sowthistle (Sonchus oleraceous), prickly […] spinosa), Italian ryegrass (Lolium multiflorum), common purslane (Portulaca oleracea), broadleaf signalgrass (Brachiaria platyphylla), common groundsel (Senecio vulgaris), common chickweed (Stellaria media), Virginia dayflower (Commelina virginica), annual bluegrass (Poa annua), naked crabgrass (Digitaria nuda), […] cochinchinensis), quackgrass (Elytrigia repens), Canada horseweed (Conyza canadensis), field bindweed (Convolvulus arvensis), […] (Bidens bipinnata), common mallow (Malva sylvestris), Russian thistle (Salsola kali), and sugarcane (Saccharum officinarum) were planted and treated preemergence with test chemicals formulated in a non-phytotoxic solvent mixture which included a surfactant. At a different time, sugarcane was treated with postemergence applications of some of the test chemicals formulated in the same manner. Plants were approximately 3- to 4-leaf stage for the postemergence treatments. Treated plants and controls were maintained in a greenhouse for 14 to 21 days, after which time all species were compared to controls and visually evaluated. […] A dash (-) response means no test result.

Redstem = experiment: Test C flooded paddy test; format: in vivo; details: Flood
Text: (§3) At time of treatment, test pots were flooded to 3 cm above the soil surface, treated by application of test compounds directly to the paddy water, and then maintained at that water depth for the duration of the test. Treated plants and controls were maintained in a greenhouse for 13 to 15 days, after which time all species were compared to controls and visually evaluated. […] A dash (-) response means no test result.

Ricefield Bulrush = experiment: Test C flooded paddy test; format: in vivo; details: Flood
Text: as §3

[3] = Preemergence, 62 g ai/ha, scale 0 to 100
[4] = Preemergence, 125 g ai/ha, scale 0 to 100
[5] = Preemergence, 31 g ai/ha, scale 0 to 100
[6] = preemergence, 250 g ai/ha, scale 0 (no effect) to 100 (complete control)
[7] = 31 g ai/ha, scale 0 to 100 (0 no effect, 100 complete control)
[8] = 62 g ai/ha, scale 0 to 100, 0 no effect, 100 complete control, 13 to 15 days
[9] = 125 g ai/ha, scale 0 to 100, 0 no effect, 100 complete control, 13 to 15 days
[10] = 250 g ai/ha, scale 0 to 100 (0 no effect, 100 complete control)

**Q.** What does the source list for `C#CCOc1c(C[S+]([O-])c2cccc[n+]2[O-])c(C(F)(F)F)nn1C` (stereo not shown) [Compound 76]?
**A.** Plant response rating, Rice, Waterseeded ([1]; 64 g ai/ha): 10; Plant response rating, Rice, Waterseeded ([1]; 125 g ai/ha): 10; Plant response rating, Rice, Waterseeded ([1]; 1000 g ai/ha): 40; Plant response rating, Watergrass, Early (early watergrass; 64 g ai/ha): 0; Plant response rating, Watergrass, Early (early watergrass; 125 g ai/ha): 50; Plant response rating, Watergrass, Early (early watergrass; 250 g ai/ha): 75; Plant response rating, Watergrass, Early (early watergrass; 500 g ai/ha): 100; Plant response rating, Watergrass, Early (early watergrass; 1000 g ai/ha): 100; Plant response rating, Sedge, Umbrella ([2]; 64 g ai/ha): 60; Plant response rating, Sedge, Umbrella ([2]; 125 g ai/ha): 90; Plant response rating, Sedge, Umbrella ([2]; 250 g ai/ha): 95; Plant response rating, Sedge, Umbrella ([2]; 500 g ai/ha): 95; Plant response rating, Sedge, Umbrella ([2]; 1000 g ai/ha): 95; Plant response rating, Sprangletop, Brdd. (bearded sprangletop; 64 g ai/ha): 20; Plant response rating, Sprangletop, Brdd. (bearded sprangletop; 125 g ai/ha): 70; Plant response rating, Sprangletop, Brdd. (bearded sprangletop; 250 g ai/ha): 70; Plant response rating, Sprangletop, Brdd. (bearded sprangletop; 500 g ai/ha): 65; Plant response rating, Sprangletop, Brdd. (bearded sprangletop; 1000 g ai/ha): 65

**Q.** For `Cc1cc[n+]([O-])c(S(=O)(=O)Cc2c(C(F)(F)F)nn(C)c2OC(F)F)c1` [Compound 2], which “Plant response rating, Barnyardgrass” value (barnyardgrass; 31 g ai/ha) is on record?
**A.** The value was 15.

**Q.** And the “Plant response rating, Barnyardgrass” value (barnyardgrass; 62 g ai/ha)?
**A.** Its value is 100.

**Q.** And the “Plant response rating, Barnyardgrass” value (barnyardgrass; 125 g ai/ha)?
**A.** The value was 100.

**Q.** What about the “Plant response rating, Barnyardgrass” value (barnyardgrass; 250 g ai/ha) of the same compound?
**A.** The value was 100.

**Q.** And the “Plant response rating, Fall Panicum” value (fall panicum; 31 g ai/ha)?
**A.** The value was 25.

**Q.** What about the “Plant response rating, Fall Panicum” value (fall panicum; 62 g ai/ha) of the same compound?
**A.** Its value is 65.

**Q.** What about the “Plant response rating, Fall Panicum” value (fall panicum; 125 g ai/ha) of the same compound?
**A.** Its value is 100.

**Q.** What about the “Plant response rating, Fall Panicum” value (fall panicum; 250 g ai/ha) of the same compound?
**A.** The value was 100.

**Q.** And the “Plant response rating, Foxtail, Giant” value (giant foxtail; 31 g ai/ha)?
**A.** Its value is 0.

**Q.** And the “Plant response rating, Foxtail, Giant” value (giant foxtail; 62 g ai/ha)?
**A.** The value was 35.

**Q.** What about the “Plant response rating, Foxtail, Giant” value (giant foxtail; 125 g ai/ha) of the same compound?
**A.** The value was 100.

**Q.** What about the “Plant response rating, Foxtail, Giant” value (giant foxtail; 250 g ai/ha) of the same compound?
**A.** The value was 100.

**Q.** What about the “Plant response rating, Windgrass” value (windgrass; 31 g ai/ha) of the same compound?
**A.** Its value is 100.

**Q.** And the “Plant response rating, Windgrass” value (windgrass; 62 g ai/ha)?
**A.** Its value is 100.

**Q.** What about the “Plant response rating, Windgrass” value (windgrass; 125 g ai/ha) of the same compound?
**A.** Its value is 100.

**Q.** What about the “Plant response rating, Windgrass” value (windgrass; 250 g ai/ha) of the same compound?
**A.** The value was 100.

**Q.** What about the “Plant response rating, Barley” value (winter barley; [3]) of the same compound?
**A.** Its value is 0.

**Q.** And the “Plant response rating, Barley” value (winter barley; [4])?
**A.** Its value is 10.

**Q.** And the “Plant response rating, Barley” value (winter barley; [5])?
**A.** Its value is 0.

**Q.** What about the “Plant response rating, Barley” value (winter barley; [6]) of the same compound?
**A.** Its value is 10.

**Q.** And the “Plant response rating, Foxtail, Millet” value (millet foxtail; 31 g ai/ha)?
**A.** Its value is 0.

**Q.** And the “Plant response rating, Foxtail, Millet” value (millet foxtail; 62 g ai/ha)?
**A.** The value was 100.

**Q.** And the “Plant response rating, Foxtail, Millet” value (millet foxtail; 125 g ai/ha)?
**A.** Its value is 100.

**Q.** And the “Plant response rating, Foxtail, Millet” value (millet foxtail; 250 g ai/ha)?
**A.** The value was 100.

**Q.** And the “Plant response rating, Sugarcane” value (sugarcane; 125 g ai/ha, preemergence, scale 0 to 100)?
**A.** Its value is 70.

**Q.** What about the “Plant response rating, Sugarcane” value (sugarcane; 500 g ai/ha, preemergence, scale 0 to 100) of the same compound?
**A.** Its value is 83.

**Q.** What about the “Plant response rating, Redstem” value (Redstem; [7]) of the same compound?
**A.** Its value is 0.

**Q.** What about the “Plant response rating, Redstem” value (Redstem; [8]) of the same compound?
**A.** The value was 30.

**Q.** What about the “Plant response rating, Redstem” value (Redstem; [9]) of the same compound?
**A.** Its value is 65.

**Q.** And the “Plant response rating, Redstem” value (Redstem; [10])?
**A.** The value was 85.

**Q.** And the “Plant response rating, Ricefield Bulrush” value (Ricefield Bulrush; [7])?
**A.** The value was 20.

**Q.** What about the “Plant response rating, Ricefield Bulrush” value (Ricefield Bulrush; [8]) of the same compound?
**A.** Its value is 20.

**Q.** And the “Plant response rating, Ricefield Bulrush” value (Ricefield Bulrush; [9])?
**A.** Its value is 45.

**Q.** And the “Plant response rating, Ricefield Bulrush” value (Ricefield Bulrush; [10])?
**A.** Its value is 80.

**Q.** Which results are given for `Cn1nc(C(F)(F)F)c(C[S+]([O-])c2cccc[n+]2[O-])c1OC(F)F` (stereo not shown) [Compound 3]?
**A.** Plant response rating, Barnyardgrass (barnyardgrass; 31 g ai/ha): 0; Plant response rating, Barnyardgrass (barnyardgrass; 62 g ai/ha): 70; Plant response rating, Barnyardgrass (barnyardgrass; 125 g ai/ha): 100; Plant response rating, Barnyardgrass (barnyardgrass; 250 g ai/ha): 100; Plant response rating, Fall Panicum (fall panicum; 31 g ai/ha): 0; Plant response rating, Fall Panicum (fall panicum; 62 g ai/ha): 40; Plant response rating, Fall Panicum (fall panicum; 125 g ai/ha): 90; Plant response rating, Fall Panicum (fall panicum; 250 g ai/ha): 95; Plant response rating, Foxtail, Giant (giant foxtail; 31 g ai/ha): 0; Plant response rating, Foxtail, Giant (giant foxtail; 62 g ai/ha): 75; Plant response rating, Foxtail, Giant (giant foxtail; 125 g ai/ha): 100; Plant response rating, Foxtail, Giant (giant foxtail; 250 g ai/ha): 100; Plant response rating, Windgrass (windgrass; 31 g ai/ha): 0; Plant response rating, Windgrass (windgrass; 62 g ai/ha): 75; Plant response rating, Windgrass (windgrass; 125 g ai/ha): 100; Plant response rating, Windgrass (windgrass; 250 g ai/ha): 100; Plant response rating, Barley (winter barley; [3]): 0; Plant response rating, Barley (winter barley; [4]): 0; Plant response rating, Barley (winter barley; [5]): 0; Plant response rating, Barley (winter barley; [6]): 15; Plant response rating, Foxtail, Millet (millet foxtail; 31 g ai/ha): 0; Plant response rating, Foxtail, Millet (millet foxtail; 62 g ai/ha): 80; Plant response rating, Foxtail, Millet (millet foxtail; 125 g ai/ha): 100; Plant response rating, Foxtail, Millet (millet foxtail; 250 g ai/ha): 100; Plant response rating, Sugarcane (sugarcane; 62 g ai/ha, Preemergence, scale 0 to 100): 17; Sugarcane plant response rating (sugarcane; 62 g ai/ha, scale 0 to 100): 32; Sugarcane plant response rating (sugarcane; [10]): 50; Plant response rating, Sugarcane (sugarcane; 250 g ai/ha, preemergence, scale 0 to 100): 50; Plant response rating, Redstem (Redstem; [7]): 20; Plant response rating, Redstem (Redstem; [8]): 40; Plant response rating, Redstem (Redstem; [9]): 45; Plant response rating, Redstem (Redstem; [10]): 85; Plant response rating, Ricefield Bulrush (Ricefield Bulrush; [7]): 55; Plant response rating, Ricefield Bulrush (Ricefield Bulrush; [8]): 55; Plant response rating, Ricefield Bulrush (Ricefield Bulrush; [9]): 75; Plant response rating, Ricefield Bulrush (Ricefield Bulrush; [10]): 80
